The target of assay [1] is T1, Androgen receptor (Rattus norvegicus, UniProt P15207).
T1 sequence (P15207 whole entry): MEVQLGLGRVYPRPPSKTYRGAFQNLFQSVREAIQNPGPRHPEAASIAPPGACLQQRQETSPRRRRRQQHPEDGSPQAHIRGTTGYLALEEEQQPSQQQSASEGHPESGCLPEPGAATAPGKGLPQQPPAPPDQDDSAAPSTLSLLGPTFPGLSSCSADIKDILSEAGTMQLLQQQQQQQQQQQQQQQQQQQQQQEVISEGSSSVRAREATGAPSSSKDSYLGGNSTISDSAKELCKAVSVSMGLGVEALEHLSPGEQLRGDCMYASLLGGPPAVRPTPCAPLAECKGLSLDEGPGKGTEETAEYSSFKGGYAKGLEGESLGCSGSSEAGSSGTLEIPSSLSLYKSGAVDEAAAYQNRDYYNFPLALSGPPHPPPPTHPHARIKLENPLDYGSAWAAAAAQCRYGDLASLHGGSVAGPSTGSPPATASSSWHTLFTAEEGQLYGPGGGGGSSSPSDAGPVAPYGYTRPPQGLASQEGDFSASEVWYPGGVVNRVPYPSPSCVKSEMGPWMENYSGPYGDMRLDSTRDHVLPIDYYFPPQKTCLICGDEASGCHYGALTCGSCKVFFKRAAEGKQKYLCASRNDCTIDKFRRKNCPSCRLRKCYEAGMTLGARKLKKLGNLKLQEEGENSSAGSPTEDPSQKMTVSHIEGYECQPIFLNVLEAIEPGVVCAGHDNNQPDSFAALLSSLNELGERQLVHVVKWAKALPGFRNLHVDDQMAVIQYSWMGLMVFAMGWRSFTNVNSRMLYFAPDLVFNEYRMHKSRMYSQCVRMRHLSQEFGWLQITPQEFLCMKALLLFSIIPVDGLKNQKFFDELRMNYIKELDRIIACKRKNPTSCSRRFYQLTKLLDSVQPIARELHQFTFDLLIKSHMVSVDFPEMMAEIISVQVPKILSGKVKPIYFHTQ
In kind it is functional.

In assay [2] the target is T2, Peroxisome proliferator-activated receptor gamma (Homo sapiens, UniProt P37231).
T2 sequence (P37231 whole entry): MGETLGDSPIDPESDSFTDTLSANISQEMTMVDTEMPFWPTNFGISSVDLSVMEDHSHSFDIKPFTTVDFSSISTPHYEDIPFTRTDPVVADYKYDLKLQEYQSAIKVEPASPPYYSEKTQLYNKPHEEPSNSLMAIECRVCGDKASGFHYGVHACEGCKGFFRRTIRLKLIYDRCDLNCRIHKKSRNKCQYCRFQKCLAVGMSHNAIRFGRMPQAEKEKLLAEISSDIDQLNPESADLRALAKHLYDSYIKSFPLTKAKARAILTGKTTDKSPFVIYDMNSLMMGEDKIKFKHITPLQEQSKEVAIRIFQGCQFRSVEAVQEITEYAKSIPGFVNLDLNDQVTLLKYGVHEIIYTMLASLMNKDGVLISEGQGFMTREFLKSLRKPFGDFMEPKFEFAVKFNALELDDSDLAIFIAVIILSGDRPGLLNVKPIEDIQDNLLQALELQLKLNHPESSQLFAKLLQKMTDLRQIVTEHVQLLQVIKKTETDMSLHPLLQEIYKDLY
In kind it is functional.

Assay [3] has as its target Gamma-aminobutyric acid receptor subunit alpha-1/alpha-2/beta-2/gamma-2 (Homo sapiens, UniProt P14867+P18507+P47869+P47870). In kind it is functional, cell-based.
Another assay addresses T3, B1 bradykinin receptor (Homo sapiens, UniProt P46663).
T3 sequence (P46663 whole entry): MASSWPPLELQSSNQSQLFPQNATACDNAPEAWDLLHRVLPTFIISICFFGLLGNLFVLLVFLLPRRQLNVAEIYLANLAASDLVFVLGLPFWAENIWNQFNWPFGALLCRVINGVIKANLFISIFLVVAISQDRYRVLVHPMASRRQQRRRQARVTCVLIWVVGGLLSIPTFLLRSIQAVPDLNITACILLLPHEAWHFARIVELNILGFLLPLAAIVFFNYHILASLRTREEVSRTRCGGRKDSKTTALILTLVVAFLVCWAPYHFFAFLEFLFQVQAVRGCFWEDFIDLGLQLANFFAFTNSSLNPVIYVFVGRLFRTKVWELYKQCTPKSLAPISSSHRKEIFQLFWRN

The target of assay [4] is T4, Gastric inhibitory polypeptide receptor (Homo sapiens, UniProt P48546).
T4 sequence (P48546 whole entry): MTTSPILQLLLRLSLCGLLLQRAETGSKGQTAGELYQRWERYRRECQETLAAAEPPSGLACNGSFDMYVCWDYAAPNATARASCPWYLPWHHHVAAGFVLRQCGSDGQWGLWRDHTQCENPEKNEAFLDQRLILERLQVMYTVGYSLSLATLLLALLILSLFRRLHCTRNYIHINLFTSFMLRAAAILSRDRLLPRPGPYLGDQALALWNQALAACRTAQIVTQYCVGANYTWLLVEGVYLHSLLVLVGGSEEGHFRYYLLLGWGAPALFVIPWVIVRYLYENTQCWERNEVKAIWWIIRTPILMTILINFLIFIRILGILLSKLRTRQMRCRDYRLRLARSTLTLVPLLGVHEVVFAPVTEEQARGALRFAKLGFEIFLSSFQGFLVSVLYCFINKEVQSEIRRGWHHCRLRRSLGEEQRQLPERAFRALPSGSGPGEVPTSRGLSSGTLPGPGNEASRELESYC

The target of assay [5] is 5-hydroxytryptamine receptor 7 (Homo sapiens, UniProt P34969).
Sequence of 5-hydroxytryptamine receptor 7 (P34969 whole entry): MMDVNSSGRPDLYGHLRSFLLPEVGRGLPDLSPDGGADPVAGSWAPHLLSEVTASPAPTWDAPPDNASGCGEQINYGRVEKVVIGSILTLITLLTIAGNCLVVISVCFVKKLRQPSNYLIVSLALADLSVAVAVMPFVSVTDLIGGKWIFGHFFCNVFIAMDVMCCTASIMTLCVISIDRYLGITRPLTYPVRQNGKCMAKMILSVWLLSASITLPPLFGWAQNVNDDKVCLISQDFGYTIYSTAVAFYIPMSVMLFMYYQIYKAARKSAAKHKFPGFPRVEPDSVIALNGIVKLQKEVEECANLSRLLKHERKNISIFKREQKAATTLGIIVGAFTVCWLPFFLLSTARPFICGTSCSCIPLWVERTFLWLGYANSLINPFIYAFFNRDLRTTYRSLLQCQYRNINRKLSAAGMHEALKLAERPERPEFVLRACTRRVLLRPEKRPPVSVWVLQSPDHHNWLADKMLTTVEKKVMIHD
Assay [6] concerns the target T5, Corticotropin-releasing factor receptor 1 (Homo sapiens, UniProt P34998).
T5 sequence (P34998 whole entry): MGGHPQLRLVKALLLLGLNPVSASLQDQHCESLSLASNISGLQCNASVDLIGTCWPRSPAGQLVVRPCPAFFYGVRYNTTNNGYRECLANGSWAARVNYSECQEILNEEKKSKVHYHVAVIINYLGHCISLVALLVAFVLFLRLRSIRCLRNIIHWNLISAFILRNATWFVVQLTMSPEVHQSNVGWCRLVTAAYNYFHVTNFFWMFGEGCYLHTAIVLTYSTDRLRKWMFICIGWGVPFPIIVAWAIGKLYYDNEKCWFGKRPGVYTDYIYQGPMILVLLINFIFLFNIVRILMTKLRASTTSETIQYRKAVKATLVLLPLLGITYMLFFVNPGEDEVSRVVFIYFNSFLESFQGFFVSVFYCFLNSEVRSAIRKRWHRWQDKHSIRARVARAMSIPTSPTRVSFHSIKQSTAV

The target in assay [7] is T1, Androgen receptor.
Further: assay procedure not described here.

Sequence of Gamma-aminobutyric acid receptor subunit alpha-1/alpha-2/beta-2/gamma-2 (P14867 whole entry): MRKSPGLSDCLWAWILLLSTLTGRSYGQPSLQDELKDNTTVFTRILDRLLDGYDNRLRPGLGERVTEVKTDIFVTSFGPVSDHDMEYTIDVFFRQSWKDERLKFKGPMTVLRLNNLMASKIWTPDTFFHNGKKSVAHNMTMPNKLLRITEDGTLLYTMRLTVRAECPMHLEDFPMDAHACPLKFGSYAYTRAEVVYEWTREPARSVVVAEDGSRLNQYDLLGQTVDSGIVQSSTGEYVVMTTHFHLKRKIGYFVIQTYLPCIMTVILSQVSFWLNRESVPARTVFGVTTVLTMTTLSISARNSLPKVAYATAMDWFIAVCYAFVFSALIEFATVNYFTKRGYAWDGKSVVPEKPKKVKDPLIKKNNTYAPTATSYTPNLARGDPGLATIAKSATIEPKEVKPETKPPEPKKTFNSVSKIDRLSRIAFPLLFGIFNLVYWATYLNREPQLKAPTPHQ
Sequence of Gamma-aminobutyric acid receptor subunit alpha-1/alpha-2/beta-2/gamma-2 (P47870 whole entry): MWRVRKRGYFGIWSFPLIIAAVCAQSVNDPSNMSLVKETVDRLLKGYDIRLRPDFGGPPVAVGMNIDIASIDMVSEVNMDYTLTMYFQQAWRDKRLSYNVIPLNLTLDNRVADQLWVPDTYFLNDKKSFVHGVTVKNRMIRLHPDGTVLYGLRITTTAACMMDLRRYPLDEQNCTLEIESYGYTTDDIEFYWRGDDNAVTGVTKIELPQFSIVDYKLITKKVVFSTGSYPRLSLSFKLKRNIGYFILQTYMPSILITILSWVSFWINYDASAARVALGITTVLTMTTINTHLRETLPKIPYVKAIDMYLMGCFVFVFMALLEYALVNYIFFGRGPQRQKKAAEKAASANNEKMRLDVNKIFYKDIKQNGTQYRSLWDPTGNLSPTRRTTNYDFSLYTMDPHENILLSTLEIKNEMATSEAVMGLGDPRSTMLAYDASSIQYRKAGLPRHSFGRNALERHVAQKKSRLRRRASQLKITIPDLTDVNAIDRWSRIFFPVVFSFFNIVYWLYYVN
Sequence of Gamma-aminobutyric acid receptor subunit alpha-1/alpha-2/beta-2/gamma-2 (P18507 whole entry): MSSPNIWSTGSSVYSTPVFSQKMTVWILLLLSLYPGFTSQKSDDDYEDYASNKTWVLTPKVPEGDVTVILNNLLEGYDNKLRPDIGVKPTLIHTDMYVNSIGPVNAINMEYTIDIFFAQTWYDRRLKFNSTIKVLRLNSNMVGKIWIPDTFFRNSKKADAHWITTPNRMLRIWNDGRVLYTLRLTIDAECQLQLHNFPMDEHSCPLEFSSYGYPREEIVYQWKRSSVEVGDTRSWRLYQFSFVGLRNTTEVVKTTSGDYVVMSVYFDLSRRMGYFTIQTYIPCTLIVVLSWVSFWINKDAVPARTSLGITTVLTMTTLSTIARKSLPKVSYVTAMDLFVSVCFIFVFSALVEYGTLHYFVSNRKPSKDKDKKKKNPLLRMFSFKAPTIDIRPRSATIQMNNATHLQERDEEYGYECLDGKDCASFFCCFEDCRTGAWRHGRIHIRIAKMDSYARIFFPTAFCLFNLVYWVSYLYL
Sequence of Gamma-aminobutyric acid receptor subunit alpha-1/alpha-2/beta-2/gamma-2 (P47869 whole entry): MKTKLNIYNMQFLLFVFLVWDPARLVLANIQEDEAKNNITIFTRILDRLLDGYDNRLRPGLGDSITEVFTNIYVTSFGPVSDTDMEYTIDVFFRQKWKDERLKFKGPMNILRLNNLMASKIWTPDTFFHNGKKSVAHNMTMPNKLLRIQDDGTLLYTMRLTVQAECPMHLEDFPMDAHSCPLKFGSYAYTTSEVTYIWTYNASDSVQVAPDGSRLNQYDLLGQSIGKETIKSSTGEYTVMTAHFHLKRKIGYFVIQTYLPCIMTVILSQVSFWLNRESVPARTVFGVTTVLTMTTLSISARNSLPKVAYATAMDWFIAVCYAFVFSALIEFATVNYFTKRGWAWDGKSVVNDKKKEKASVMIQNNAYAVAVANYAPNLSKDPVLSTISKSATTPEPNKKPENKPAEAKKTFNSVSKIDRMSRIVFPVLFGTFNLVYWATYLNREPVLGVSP

In the case of `CCCCCCC(C)(C)c1cc(O)c2c(c1)OC(C)(C)C1CCC(=O)CC21` (stereo not given) [NABILONE], the AC50 (on Androgen receptor [1]; in assay [2]; in assay [3]) was greater than 30 µM each time.

Consider `O=C(O)CCCc1ccccc1` [PHENYLBUTANOIC ACID], for which the AC50 at B1 bradykinin receptor is greater than 10 µM; in assay [4], greater than 30 µM; in assay [5] it was greater than 10 µM; in assay [6], greater than 30 µM.

For `Cc1ccc(-c2nc3ccc(C)cn3c2CC(=O)N(C)C)cc1` [ZOLPIDEM], the AC50 on B1 bradykinin receptor was greater than 30 µM; in assay [4] it was greater than 30 µM; in assay [5] it was greater than 10 µM; in assay [6], greater than 30 µM.

For `CCCCCN(C)CCC(O)(P(=O)(O)O)P(=O)(O)O` [IBANDRONIC ACID], the AC50 at B1 bradykinin receptor is greater than 30 µM; at Androgen receptor [1], greater than 30 µM; in assay [4] it was greater than 30 µM; in assay [5], greater than 10 µM; on Androgen receptor [7] it was greater than 30 µM; in assay [6], greater than 30 µM.

In the case of `NC(=O)C[S+]([O-])C(c1ccccc1)c1ccccc1` (stereo not given) [MODAFINIL], the AC50 at B1 bradykinin receptor was greater than 30 µM; in assay [4], greater than 30 µM; in assay [5] it was greater than 10 µM; in assay [6] it was greater than 30 µM.

Consider `[H]/N=C(/N)c1ccc(NCc2nc3cc(C(=O)N(CCC(=O)O)c4ccccn4)ccc3n2C)cc1` [DABIGATRAN], for which the AC50 (at Androgen receptor [1]; in assay [2]; in assay [3]) was greater than 30 µM in each case.

For the compound `CN(C)C(=O)OC1N=C(c2ccccc2)c2cc(Cl)ccc2N(C)C1=O` (stereo not given) [CAMAZEPAM], the AC50 on B1 bradykinin receptor was greater than 30 µM; in assay [4], greater than 30 µM; in assay [5] it was greater than 10 µM; on Androgen receptor [7], greater than 30 µM; in assay [6] it was greater than 30 µM.

As to `CN1CCN(C(=O)OC2c3nccnc3C(=O)N2c2ccc(Cl)cn2)CC1` (stereo not given) [ZOPICLONE], the concentration at half-maximal activity (AC50) is greater than 30 µM on B1 bradykinin receptor; greater than 30 µM in assay [2]; greater than 30 µM in assay [4]; greater than 10 µM in assay [5]; greater than 30 µM in assay [6].

Regarding `CC[C@]1(O)C[C@@H]2CN(CCc3c([nH]c4ccccc34)[C@@](C(=O)OC)(c3cc4c(cc3OC)N(C)[C@H]3[C@@](O)(C(N)=O)[C@H](O)[C@]5(CC)C=CCN6CC[C@]43[C@@H]65)C2)C1` [VINDESINE], at Androgen receptor [1], the AC50 is greater than 30 µM.

On to TOCOFERSOLAN, for which the AC50 on Androgen receptor [1] was greater than 30 µM.

In the case of `CC(C)(Oc1ccc(C2CC2(Cl)Cl)cc1)C(=O)O` (stereo not given) [CIPROFIBRATE], the concentration at half-maximal activity (AC50) (at Androgen receptor [1]; in assay [2]) was greater than 30 µM throughout.

Consider `O=C(OCCN1CCOCC1)c1cccnc1Nc1cccc(C(F)(F)F)c1` [MORNIFLUMATE], for which the AC50 at Androgen receptor [1] was greater than 30 µM.

Compound `COC(=O)[C@H]1[C@@H](OC(=O)c2ccccc2)C[C@@H]2CC[C@H]1N2C` [COCAINE] yielded an AC50 at Androgen receptor [1] greater than 30 µM.

Broadly, the AC50 is the concentration at which the activity in the assay is half-maximal.

Values taken from ChEMBL document CHEMBL5291721, “A preclinical secondary pharmacology resource illuminates target-adverse drug reaction associations of marketed drugs” (Nat Commun, 2023).
